SMILES strings stand for the structures. A value given as a limit tells only on which side of the number the result lay.

Assay [1] addresses T1, Recombinant STAT3 protein (STAT3(G127-I722)) (Homo sapiens, UniProt P40763).
T1 construct: STAT3(G127-I722)
The assay is described as follows: STAT3 Fluorescence Polarization (FP) Assay. It is filed as binding. To be noted: STAT3(G127-I722) 25 nM, probe 5-FAM-GpYLPQTV-NH2 2 nM, 45-minute incubation. In short, it runs like this: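 Serially diluted compounds (1% DMSO) were mixed with 2 nM fluorescent phosphotyrosine peptide and 25 nM STAT3 construct G127-I722, pH 7.4, incubated 45 min at room temperature. IC50 values from fitted polarization curves are reported as categories A (≤100 nM), B, C, D (>10 μM).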
For orientation: Polarisation of emitted light reports the rotation of a fluorescent probe.

The target in assay [2] is T2, Recombinant STAT6 protein (STAT6(W123-T658)) (Homo sapiens, UniProt P42226).
T2 construct: STAT6(W123-T658)
T2 sequence (P42226 123-658): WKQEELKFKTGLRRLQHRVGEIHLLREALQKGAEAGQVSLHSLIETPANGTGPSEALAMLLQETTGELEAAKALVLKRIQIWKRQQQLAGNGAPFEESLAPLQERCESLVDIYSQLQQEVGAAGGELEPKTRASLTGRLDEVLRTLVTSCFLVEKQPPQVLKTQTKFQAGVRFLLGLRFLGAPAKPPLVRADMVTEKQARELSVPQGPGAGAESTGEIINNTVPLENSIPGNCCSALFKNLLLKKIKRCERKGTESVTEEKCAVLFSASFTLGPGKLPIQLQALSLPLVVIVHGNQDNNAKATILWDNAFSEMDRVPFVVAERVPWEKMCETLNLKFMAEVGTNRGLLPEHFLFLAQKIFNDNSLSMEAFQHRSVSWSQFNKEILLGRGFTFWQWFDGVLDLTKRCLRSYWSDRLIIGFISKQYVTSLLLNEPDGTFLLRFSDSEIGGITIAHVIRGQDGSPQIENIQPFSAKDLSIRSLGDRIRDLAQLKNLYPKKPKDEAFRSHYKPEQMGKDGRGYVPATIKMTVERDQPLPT
The assay is described as follows: STAT6 Fluorescence Polarization (FP) Assay. To be noted: STAT6(W123-T658) 250 nM, probe 5-FAM-ApYKPFQDLI-NH2 2 nM, 45-minute incubation. It counts as binding. In short, it runs like this:
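Competitive displacement of a fluorescent phosphotyrosine peptide (2 nM) from recombinant STAT6 W123-T658 (250 nM), 45 min at room temperature in 10 mM HEPES pH 7.4, 50 mM NaCl, 2 mM DTT. mP fitted against log compound for IC50, grouped A (≤300 nM) to D (>30 μM).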

T1 sequence (P40763 127-722, species assumed): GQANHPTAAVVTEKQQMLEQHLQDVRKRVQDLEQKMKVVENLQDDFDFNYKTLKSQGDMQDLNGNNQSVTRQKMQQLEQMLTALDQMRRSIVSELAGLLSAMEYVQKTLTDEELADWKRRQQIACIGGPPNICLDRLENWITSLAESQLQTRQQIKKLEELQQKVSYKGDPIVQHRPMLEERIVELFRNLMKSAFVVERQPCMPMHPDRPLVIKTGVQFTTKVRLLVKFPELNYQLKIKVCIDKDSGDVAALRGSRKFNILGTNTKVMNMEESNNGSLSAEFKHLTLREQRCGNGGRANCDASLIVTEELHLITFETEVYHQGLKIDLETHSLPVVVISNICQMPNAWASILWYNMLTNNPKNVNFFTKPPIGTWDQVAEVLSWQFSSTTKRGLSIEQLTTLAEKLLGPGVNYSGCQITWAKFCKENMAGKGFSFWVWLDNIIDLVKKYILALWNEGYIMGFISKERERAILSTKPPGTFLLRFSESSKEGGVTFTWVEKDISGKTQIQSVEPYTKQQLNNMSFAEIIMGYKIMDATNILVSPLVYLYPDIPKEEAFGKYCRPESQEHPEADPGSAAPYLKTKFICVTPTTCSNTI

As to `O=C(N[C@H]1C[C@@H]2C[C@@H]2C[C@H]2CC[C@@H](C(=O)N3CC(Cc4ccc(F)cc4F)C3)N2C1=O)c1cc2cc(CP(=O)(O)O)ccc2s1` [Example 377, ((2-(((3S,6S,7aS,8aR,9aR)-3-(3-(2,4-difluorobenzyl)azetidine-1-carbonyl)-5-oxodecahydro-1H-cyclopropa[d]pyrrolo[1,2-a]azocin-6-yl)carbamoyl)benzo[b]thiophen-5-yl)methyl)phosphonic acid], the IC50 – broadly, the midpoint of a concentration-inhibition curve – in assay [1] was 0.1 to 1 µM; in assay [2], 3 to 30 µM.

Regarding `O=C(N[C@H]1C[C@@H]2C[C@@H]2C[C@H]2CC[C@@H](C(=O)N3CC(Cc4cc(F)ccc4F)C3)N2C1=O)c1cc2cc(CP(=O)(O)O)ccc2s1` [Example 378, ((2-(((3S,6S,7aS,8aR,9aR)-3-(3-(2,5-difluorobenzyl)azetidine-1-carbonyl)-5-oxodecahydro-1H-cyclopropa[d]pyrrolo[1,2-a]azocin-6-yl)carbamoyl)benzo[b]thiophen-5-yl)methyl)phosphonic acid], the IC50 was in the range of 1 to 10 µM in assay [1] and 3 to 30 µM in assay [2].

With `Cn1cc(CC2CN(C(=O)[C@@H]3CC[C@@H]4C[C@H]5C[C@H]5C[C@H](NC(=O)c5cc6cc(CP(=O)(O)O)ccc6s5)C(=O)N43)C2)cn1` [Example 379, ((2-(((3S,6S,7aS,8aR,9aR)-3-(3-((1-methyl-1H-pyrazol-4-yl)methyl)azetidine-1-carbonyl)-5-oxodecahydro-1H-cyclopropa[d]pyrrolo[1,2-a]azocin-6-yl)carbamoyl)benzo[b]thiophen-5-yl)methyl)phosphonic acid], the IC50 lay in the range of 1 to 10 µM in assay [1] and 3 to 30 µM in assay [2].

Consider `O=C(N[C@H]1C[C@@H]2C[C@@H]2C[C@H]2CC[C@@H](C(=O)N3CC(Cc4cccnc4)C3)N2C1=O)c1cc2cc(CP(=O)(O)O)ccc2s1` [Example 380, ((2-(((3S,6S,7aS,8aR,9aR)-5-oxo-3-(3-(pyridin-3-ylmethyl)azetidine-1-carbonyl)decahydro-1H-cyclopropa[d]pyrrolo[1,2-a]azocin-6-yl)carbamoyl)benzo[b]thiophen-5-yl)methyl)phosphonic acid], for which the figures for the IC50 in assay [1] and in assay [2] were 0.1 to 1 µM and 3 to 30 µM, respectively.

As to `Cc1ccc2c(c1)OCCN2C(=O)[C@@H]1CC[C@@H]2C[C@H]3C[C@H]3C[C@H](NC(=O)c3cc4cc(C(F)P(=O)(O)O)ccc4s3)C(=O)N21` (stereo partly drawn) [Example 383, (fluoro(2-(((3S,6S,7aS,8aR,9aR)-3-(7-methyl-3,4-dihydro-2H-benzo[b][1,4]oxazine-4-carbonyl)-5-oxodecahydro-1H-cyclopropa[d]pyrrolo[1,2-a]azocin-6-yl)carbamoyl)benzo[b]thiophen-5-yl)methyl)phosphonic acid], the IC50 in assay [1] was 1 to 10 µM; in assay [2] it was 0.3 to 3 µM.

`O=C(N[C@H]1C[C@@H]2C[C@@H]2C[C@H]2CC[C@@H](C(=O)N3CCOc4cc(F)ccc43)N2C1=O)c1cc2cc(C(F)P(=O)(O)O)ccc2s1` (stereo partly drawn) [Example 384, (fluoro(2-(((3S,6S,7aS,8aR,9aR)-3-(7-fluoro-3,4-dihydro-2H-benzo[b][1,4]oxazine-4-carbonyl)-5-oxodecahydro-1H-cyclopropa[d]pyrrolo[1,2-a]azocin-6-yl)carbamoyl)benzo[b]thiophen-5-yl)methyl)phosphonic acid]: the IC50 in assay [1] is 1 to 10 µM; in assay [2], 3 to 30 µM.

In the case of `O=C(N[C@H]1C[C@@H]2C[C@@H]2C[C@H]2CC[C@@H](C(=O)N3CCOc4cccnc43)N2C1=O)c1cc2cc(C(F)P(=O)(O)O)ccc2s1` (stereo partly drawn) [Example 385, ((2-(((3S,6S,7aS,8aR,9aR)-3-(3,4-dihydro-2H-pyrido[3,2-b][1,4]oxazine-4-carbonyl)-5-oxodecahydro-1H-cyclopropa[d]pyrrolo[1,2-a]azocin-6-yl)carbamoyl)benzo[b]thiophen-5-yl)fluoromethyl)phosphonic acid], the IC50 fell in the range of 1 to 10 µM in assay [1] and 3 to 30 µM in assay [2].

Take `O=C(N[C@H]1C[C@@H]2C[C@@H]2C[C@H]2CC[C@@H](C(=O)N3CCOc4ncccc43)N2C1=O)c1cc2cc(C(F)P(=O)(O)O)ccc2s1` (stereo partly drawn) [Example 386, ((2-(((3S,6S,7aS,8aR,9aR)-3-(2,3-dihydro-1H-pyrido[2,3-b][1,4]oxazine-1-carbonyl)-5-oxodecahydro-1H-cyclopropa[d]pyrrolo[1,2-a]azocin-6-yl)carbamoyl)benzo[b]thiophen-5-yl)fluoromethyl)phosphonic acid]: the figures for the IC50 in assay [1] and in assay [2] were 1 to 10 µM and 0.3 to 3 µM, respectively.

On to `O=C(N[C@H]1C[C@@H]2C[C@@H]2C[C@H]2CC[C@@H](C(=O)N3CCN(C4COC4)c4ccccc43)N2C1=O)c1cc2cc(C(F)P(=O)(O)O)ccc2s1` (stereo partly drawn) [Example 387, (fluoro(2-(((3S,6S,7aS,8aR,9aR)-3-(4-(oxetan-3-yl)-1,2,3,4-tetrahydroquinoxaline-1-carbonyl)-5-oxodecahydro-1H-cyclopropa[d]pyrrolo[1,2-a]azocin-6-yl)carbamoyl)benzo[b]thiophen-5-yl)methyl)phosphonic acid], for which the concentration for half-maximal inhibition (IC50) was 1 to 10 µM in assay [1] and 3 to 30 µM in assay [2].

On to `O=C(N[C@H]1C[C@@H]2C[C@@H]2C[C@H]2CC[C@@H](C(=O)N3CCC34CCCCC4)N2C1=O)c1cc2cc(C(F)P(=O)(O)O)ccc2s1` (stereo partly drawn) [Example 388, (fluoro(2-(((3S,6S,7aS,8aR,9aR)-5-oxo-3-(1-azaspiro[3.5]nonane-1-carbonyl)decahydro-1H-cyclopropa[d]pyrrolo[1,2-a]azocin-6-yl)carbamoyl)benzo[b]thiophen-5-yl)methyl)phosphonic acid], for which the IC50 in assay [1] was 1 to 10 µM; in assay [2] it was 3 to 30 µM.

For the molecule `O=C(N[C@H]1C[C@@H]2C[C@@H]2C[C@H]2CC[C@@H](C(=O)N3CCC34CCCC4)N2C1=O)c1cc2cc(C(F)P(=O)(O)O)ccc2s1` (stereo partly drawn) [Example 389, (fluoro(2-(((3S,6S,7aS,8aR,9aR)-5-oxo-3-(1-azaspiro[3.4]octane-1-carbonyl)decahydro-1H-cyclopropa[d]pyrrolo[1,2-a]azocin-6-yl)carbamoyl)benzo[b]thiophen-5-yl)methyl)phosphonic acid], the IC50 in assay [1] was 1 to 10 µM; in assay [2] it was 3 to 30 µM.

On to `O=C(N[C@H]1C[C@@H]2C[C@@H]2C[C@H]2CC[C@@H](C(=O)N3CC(c4ccccc4)C3)N2C1=O)c1cc2cc(C(F)P(=O)(O)O)ccc2s1` (stereo partly drawn) [Example 390, (fluoro(2-(((3S,6S,7aS,8aR,9aR)-5-oxo-3-(3-phenylazetidine-1-carbonyl)decahydro-1H-cyclopropa[d]pyrrolo[1,2-a]azocin-6-yl)carbamoyl)benzo[b]thiophen-5-yl)methyl)phosphonic acid], for which the IC50 in assay [1] lay within 0.1 to 1 µM; in assay [2], 3 to 30 µM.

Regarding `CN(C)c1ccncc1C1CN(C(=O)[C@@H]2CC[C@@H]3C[C@@H]4C[C@@H]4C[C@H](NC(=O)c4cc5cc(CP(=O)(O)O)ccc5s4)C(=O)N32)C1` [Example 393, ((2-(((3S,6S,7aR,8aS,9aR)-3-(3-(4-(dimethylamino)pyridin-3-yl)azetidine-1-carbonyl)-5-oxodecahydro-1H-cyclopropa[d]pyrrolo[1,2-a]azocin-6-yl)carbamoyl)benzo[b]thiophen-5-yl)methyl)phosphonic acid], the IC50 in assay [1] is less than 0.1 µM; in assay [2], greater than 30 µM.

On to `O=C(N[C@H]1C[C@@H]2C[C@@H]2C[C@H]2CC[C@@H](C(=O)N3CC(c4nocc4Br)C3)N2C1=O)c1cc2cc(C(F)P(=O)(O)O)ccc2s1` (stereo partly drawn) [Example 400, ((2-(((3S,6S,7aS,8aR,9aR)-3-(3-(4-bromoisoxazol-3-yl)azetidine-1-carbonyl)-5-oxodecahydro-1H-cyclopropa[d]pyrrolo[1,2-a]azocin-6-yl)carbamoyl)benzo[b]thiophen-5-yl)fluoromethyl)phosphonic acid], for which the IC50 lay in the range of 0.1 to 1 µM in assay [1] and 3 to 30 µM in assay [2].

`CN(C)c1ccncc1C1CN(C(=O)[C@@H]2CC[C@@H]3C[C@H]4C[C@H]4C[C@H](NC(=O)c4cc5cc(C(F)(F)P(=O)(O)O)ccc5s4)C(=O)N32)C1` [Example 419, ((2-(((3S,6S,7aS,8aR,9aR)-3-(3-(4-(dimethylamino)pyridin-3-yl)azetidine-1-carbonyl)-5-oxodecahydro-1H-cyclopropa[d]pyrrolo[1,2-a]azocin-6-yl)carbamoyl)benzo[b]thiophen-5-yl)difluoromethyl)phosphonic acid]: the IC50 in assay [1] is less than 0.1 µM; in assay [2] it was 0.3 to 3 µM.
